Results reported in US9968572B2, “Clonidine and GABA compounds in a biodegradable polymer carrier” (Warsaw Orthopedic, Inc., priority 2010, dated 2018).

Legend:
[1] = tested on: Sprague Dawley rats with chronic constriction injury (CCI) of the sciatic nerve; assay: Thermal hyperalgesia paw withdrawal latency after chronic constriction injury of the sciatic nerve; format: in vivo; details: rat CCI model; gabapentin 90 mg/kg subcutaneous 1 hour prior to each assessment; days 7, 14, 21 post-CCI; injured (rt) limb; vs vehicle (PBS); 2-factor ANOVA, p<0.0001
Description: (§1) Rats were treated with a subcutaneous human equivalent dose of 885 mcg of gabapentin 1 hour prior to testing.
(§2) Eight Sprague Dawley rats were given a chronic constriction injury (CCI) of the sciatic nerve. The CCI was induced as described by Bennett and Xie (1988). Animals were anesthetized with pentobarbital (60 mg/kg). The right common sciatic nerve was exposed by blunt dissection between the femoral biceps and quadriceps muscle and freed from adherent tissue. Four loose ligatures were placed 1 mm apart using 4-0 chromic gut absorbable sutures. Four animals received a subcutaneous injection of gabapentin (90 mg/kg) 1 hour prior to each post-CCI pain assessment (BP) and four animals received vehicle (PBS) injections. Thermal hyperalgesia paw withdrawal latency response of the injured (rt) limb was measured 2 days before the CCI and on days 7, 14, and 21 post-CCI surgery. This is considered a model of neuropathic pain. FIG. 3 is a bar graph illustration showing that Von Frey withdrawal threshold is increased by gabapentin in rats with an injury to the sciatic nerve.

[2] = tested on: Sprague Dawley rats with chronic constriction injury (CCI) of the sciatic nerve; assay: Mechanical paw withdrawal (allodynia) Von Frey threshold after chronic constriction injury of the sciatic nerve; format: in vivo; details: rat CCI model; gabapentin 90 mg/kg subcutaneous 1 hour prior to each assessment; days 8, 15, 22 post-CCI; vs vehicle (PBS); 2-factor ANOVA, p<0.001
Description: as §1, §2
Mechanical paw withdrawal (allodynia) thresholds of each animal were measured the day before the CCI and on days 8, 15, and 22. FIG. 4 is a bar graph illustration showing that thermal withdrawal latency is increased by gabapentin in rats with an injury to the sciatic nerve. This is considered a model of tactile somatic pain.

## NCC1(CC(=O)O)CCCCC1 [gabapentin, 2-[1-(aminomethyl)cyclohexyl]acetic acid]
[1]
  Thermal withdrawal latency, expressed as a percent of baseline: significantly higher
[2]
  Von Frey threshold, expressed as a percent of baseline: significantly higher
